Reference: patent publication US20230302036A1, “COMPOSITIONS FOR TREATMENT OF SPINAL MUSCULAR ATROPHY” (priority 2020, published 2023)
“Also recorded” adds a separate entry of the source. Oligonucleotides are written 5' to 3', each unit as a sugar letter and its base; * is a phosphorothioate linkage, no mark a phosphodiester; rarer units and linkages stand in square brackets, end groups in braces. Plain capitals give the bases only. e = 2'-O-(2-methoxyethyl) (MOE); [5mC] = 5-methylcytosine

Legend:
[1] = test system: SMA mice (Smn-/-; SMN2 2TG/0); assay: Kaplan-Meier survival of severe SMA mice; type: in vivo, mouse; settings: s.c. ASO1 at P0 and P1 and/or one s.c. VPA 10 µg/g
Experimental: Kaplan-Meier survival plot (FIG. 4A) and growth curves (FIG. 4B) of SMA mice, following subcutaneous administration at P0 and P1 of 16.8 µg ASO1 (n=18) or saline (n=14), one subcutaneous dose before P3 of 10 µg per g of body weight VPA (n=12), or both treatments together (n=20). ASO1-treated Smn^+/- heterozygote littermates (n=15) served as controls. Scramble (Ctrl) (n=12, 40 trials), VPA (n=13, 50 trials), ASO1 (n=11, 50 trials), ASO1 + VPA (n=17, 68 trials), and untreated heterozygotes (n=12, 36 trials). Statistical significance was analyzed by two-way repeated measures ANOVA. P < 0.05 was considered statistically significant; data are represented as mean + SD. In the righting-reflex test, the time it took a mouse to right itself […] on a flat surface was measured. In the grip-strength test, the angle at which the pups fell from a tablet with a rough to which they held on by their forelimbs was measured.
FIGS. 7A-H show ASO1 and TSA combined treatment in mice. Kaplan-Meier survival plot (FIG. 7A) and growth curves (FIG. 7B) of SMA mice after subcutaneous administration at P0 and P1 of 16.8 µg ASO1 (n=20) or vehicle (n=12), one subcutaneous dose of 10 µg per g of body weight TSA (n=15) at P2, or both treatments together (n=24), are shown. ASO1-treated heterozygotes (n=18) served as controls. Statistical significance was analyzed by two-way repeated measures ANOVA. P < 0.05 was considered statistically significant; data are represented as mean + SD.
All mouse protocols were in accordance with Cold Spring Harbor Laboratory’s Institutional Animal Care and Use Committee guidelines. The mild Hung mouse model (Smn^-^/-; SMN2^2TG/2TG) was the strain FVB.Cg-Smn1^tm1Hung Tg(SMN2)2^Hung/J, purchased from Jackson Laboratory (stock no. 005058). The severe SMA model (Smn^-/-; SMN2^2TG/0) was generated as previously described (Hua et al., Nature 478, 123-126, 2011).
Oligonucleotide solutions in saline were injected subcutaneously into the upper back at P0 and P1 with a […] and 33-gauge custom removable needle (Hamilton) as described (Hua et al., Nature 478, 123-126, 2011). All drugs were injected subcutaneously before P3, contralateral to the oligonucleotide-injection site, with TSA (10 mg/kg) or VPA (10 mg/kg) or vehicle. Mouse tissues and organs, including liver, thigh muscles, kidney, and spinal cord, were snap-frozen in liquid N2 and stored at -70° C.
Introduction of a human SMN2 transgene in an Smn^-/- background rescues embryonic lethality, displaying a range of phenotypes, depending on the SMN2 copy number (Hsieh-Li et al., Nat. Genet. 24, 66-70, 2000; Monani et al., Hum Mol Genet. 12; 333-339, 2000). […]

[2] = test system: endogenous SMN2 E7 alternative splicing; assay: SMN2 E7 alternative splicing by radioactive RT-PCR in HEK293T cells; type: cell-based, human; settings: HEK293T
Experimental: Alternative splicing was analyzed by radioactive RT-PCR followed by native polyacrylamide gel electrophoresis and autoradiography. Bars display means ± SD of percentage of the radioactivity in the FL band over the sum of radioactivity measurements in the FL and ΔE7 bands of at least three independent transfection experiments. A two-tailed Student’s t test was used to determine the significance between events. (FIG. 1A) HEK293T cells were co-transfected with the SMN2 minigene and expression vectors for WT^res and hC4 Pol II, followed by addition of α-amanitin. (FIG. 1B) Effect of camptothecin (CPT) on SMN2 E7 alternative splicing. HEK293T cells were incubated for at least 6 hours with 3 µM CPT. Combined effects on endogenous SMN2 E7 alternative splicing of transfection with 25 nM ASO1 and treatment with 3 µM TSA for 24 hr (FIG. 1C), 10 mM VPA for 24 hr (FIG. 1D), or 25 µM 5-AZA for 48 hr (FIG. 1E). Combined effects on HEK293T endogenous SMN2 E7 alternative splicing of transfection with 25 nM each of si-hnRNPA1 and si-hnRNPA2, and treatment with 3 µM TSA for 24 hr (FIG. 1F) or 10 mM VPA for 24 hr (FIG. 1G). […]
HEK293T, HeLa, and SMA type I homozygous and carrier fibroblasts 3813 and 3814 (Coriell Cell Repositories, Camden, New Jersey, United States) were grown in Dulbecco’s modified Eagle’s medium (DMEM) containing 4.5 g of glucose and 10% fetal bovine serum (Gibco) at 37° C. Cells were plated at a density of 2×10^5 cells per well in 12-well plates 24 hr before transfection. siRNA (25 nM), plasmid (500 ng), or ASO (25 nM) transfections were performed 24 hr after cells were plated, using 3 µl of Lipofectamine 2000 (Thermo Fisher Scientific) per well in 12-well plates. 24-48 h later, cells were treated with Trichostatin A (Sigma, T8552), Valproic Acid (Sigma, P4543), 5-Azacytidine (Sigma, A2385) or vehicle for the indicated time, and harvested for downstream procedures. […]

[3] = test system: SMA mice; assay: Grip-strength test of P7 SMA mice; type: in vivo, mouse; settings: untreated mutants ~35°
Experimental: ASO1-treated Smn^+/- heterozygote littermates (n=15) served as controls. Scramble (Ctrl) (n=12, 40 trials), VPA (n=13, 50 trials), ASO1 (n=11, 50 trials), ASO1 + VPA (n=17, 68 trials), and untreated heterozygotes (n=12, 36 trials). Statistical significance was analyzed by two-way repeated measures ANOVA. P < 0.05 was considered statistically significant; data are represented as mean + SD. […] In the grip-strength test, the angle at which the pups fell from a tablet with a rough to which they held on by their forelimbs was measured.
In the grip-strength test, the angle at which the pups fall from a tablet with a rough surface to which they hold on by their forelimbs was measured.

| Molecule | survival (in words) [1] | effect of hnRNPA1/A2 depletion in promoting E7 inclusion upon HDAC inhibitor treatment ([2]; 25 nM each si-hnRNPA1 and si-hnRNPA2, no ASO1, 3 µM TSA or 10 mM VPA 24 hr) | grip strength, inclination angle at which pups fall [3] | median survival [1] | mice still alive at P50 [1] | effect on SMN2 E7 inclusion, agent alone ([2]; 25 nM ASO, 3 µM TSA 24 hr, 25 µM 5-AZA 48 hr, 3 µM CPT) |
| --- | --- | --- | --- | --- | --- | --- |
| CCCC(CCC)C(=O)O [VPA, valproic acid] | died before P10; also recorded: lack of an effect per se | stronger | ~ 30 ° | – | – | – |
| ASO1: 5′-ATTCACTTTCATAATGCTGG-3′ 2′-O-methoxyethyl-modified oligonucleotide with phosphorothioate backbone and all 5-methyl cytosines; nusinersen variant with 2-nucleotide extension (antisense eA*eT*eT*e[5mC]*eA*e[5mC]*eT*eT*eT*e[5mC]*eA*eT*eA*eA*eT*eG*e[5mC]*eT*eG*eG) | significantly extended | – | ~ 45 ° | ~ 20 days | 15% | promoted inclusion |
